# Source: PMC9116245, “New 1,2,3-triazole linked ciprofloxacin-chalcones induce DNA damage by inhibiting human topoisomerase I& II and tubulin polymerization” (Journal of Enzyme Inhibition and Medicinal Chemistry, 2022)
# Assays:
# Assay type in all cases: cell-based
# [1] = system: A498; assay: NCI one-dose screen; settings: Homo sapiens; A498, 10 µM; read-out: Growth Percent
# Experimental: (§1) For screening of anticancer properties, all the developed compounds were chosen by the (NCI) for in-vitro antitumor evaluation. The assay was carried out using 59 human cancer cell lines obtained from nine tumour subpanels (breast, ovarian, melanoma, leukaemia, renal, CNS, lung, prostate, and colon cancer cell lines). Compounds were assessed at a 10 µM concentration. […] Also, hybrids 4a, 4b, 4e, 4i and 4j produced significant anti-proliferative effect in several cancer cells, particularly in leukaemia (RPMI-8226) and colon (HCT116) cells with growth percent of 47.87, −14.59, −24.56, −24.42, −15.84, −9.74, −53.36, −10.26, −31.29, and −39.51%, respectively.
# (§2) The method description for NCI anticancer screening is provided in detail in the standard NCI-60 testing protocol.
# [2] = system: A549/ATCC; assay: NCI one-dose screen; settings: Homo sapiens, read-out: Growth Percent
# Experimental: as §1, §2
# [3] = system: ACHN; assay: NCI one-dose screen; settings: Homo sapiens, read-out: Growth Percent
# Experimental: as §1, §2
# [4] = system: CCRF-CEM; assay: NCI one-dose screen; settings: Homo sapiens, read-out: Growth Percent
# Experimental: as §1, §2
# [5] = system: DU-145; assay: NCI one-dose screen; settings: Homo sapiens; DU-145, 10 µM; read-out: Growth Percent
# Experimental: as §1, §2
# [6] = system: EKVX; assay: NCI one-dose screen; settings: Homo sapiens, read-out: Growth Percent
# Experimental: as §1, §2
# [7] = system: HCC-2998; assay: NCI one-dose screen; settings: Homo sapiens; HCC-2998, 10 µM; read-out: Growth Percent
# Experimental: as §1, §2
# [8] = system: HCT-15; assay: NCI one-dose screen; settings: Homo sapiens; HCT-15, 10 µM; read-out: Growth Percent
# Experimental: as §1, §2
# [9] = system: HT29; assay: NCI one-dose screen; settings: Homo sapiens, HT-29; HT29, 10 µM; read-out: Growth Percent
# Experimental: as §1, §2
# [10] = system: KM12; assay: NCI one-dose screen; settings: Homo sapiens; KM12, 10 µM; read-out: Growth Percent
# Experimental: as §1, §2
# [11] = system: LOX IMVI; assay: NCI one-dose screen; settings: Homo sapiens, read-out: Growth Percent
# Experimental: as §1, §2
# [12] = system: M14; assay: NCI one-dose screen; settings: Homo sapiens; M14, 10 µM; read-out: Growth Percent
# Experimental: as §1, §2
# [13] = system: MCF7; assay: NCI one-dose screen; settings: Homo sapiens; MCF7, 10 µM; read-out: Growth Percent
# Experimental: as §1, §2
# [14] = system: MDA-MB-435; assay: NCI one-dose screen; settings: Homo sapiens; MDA-MB-435, 10 µM; read-out: Growth Percent
# Experimental: as §1, §2
# [15] = system: MDA-MB-468; assay: NCI one-dose screen; settings: Homo sapiens; MDA-MB-468, 10 µM; read-out: Growth Percent
# Experimental: as §1, §2
# [16] = system: MOLT-4; assay: NCI one-dose screen; settings: Homo sapiens; MOLT-4, 10 µM; read-out: Growth Percent
# Experimental: as §1, §2
# [17] = system: NCI-H226; assay: NCI one-dose screen; settings: Homo sapiens; NCI-H226, 10 µM; read-out: Growth Percent
# Experimental: as §1, §2
# [18] = system: NCI-H23; assay: NCI one-dose screen; settings: Homo sapiens; NCI-H23, 10 µM; read-out: Growth Percent
# Experimental: as §1, §2
# [19] = system: NCI-H460; assay: NCI one-dose screen; settings: Homo sapiens; NCI-H460, 10 µM; read-out: Growth Percent
# Experimental: as §1, §2
# [20] = system: NCI-H522; assay: NCI one-dose screen; settings: Homo sapiens; NCI-H522, 10 µM; read-out: Growth Percent
# Experimental: as §1, §2
# [21] = system: OVCAR-3; assay: NCI one-dose screen; settings: Homo sapiens; OVCAR-3, 10 µM; read-out: Growth Percent
# Experimental: as §1, §2
# [22] = system: OVCAR-8; assay: NCI one-dose screen; settings: Homo sapiens; OVCAR-8, 10 µM; read-out: Growth Percent
# Experimental: as §1, §2
# [23] = system: SF-268; assay: NCI one-dose screen; settings: Homo sapiens; SF-268, 10 µM; read-out: Growth Percent
# Experimental: as §1, §2
# [24] = system: SF-295; assay: NCI one-dose screen; settings: Homo sapiens; SF-295, 10 µM; read-out: Growth Percent
# Experimental: as §1, §2
# [25] = system: SF-539; assay: NCI one-dose screen; settings: Homo sapiens; SF-539, 10 µM; read-out: Growth Percent
# Experimental: as §1, §2
# [26] = system: SK-MEL-28; assay: NCI one-dose screen; settings: Homo sapiens; SK-MEL-28, 10 µM; read-out: Growth Percent
# Experimental: as §1, §2
# [27] = system: SN12C; assay: NCI one-dose screen; settings: Homo sapiens, read-out: Growth Percent
# Experimental: as §1, §2
# [28] = system: SNB-75; assay: NCI one-dose screen; settings: Homo sapiens; SNB-75, 10 µM; read-out: Growth Percent
# Experimental: as §1, §2
# [29] = system: SR; assay: NCI one-dose screen; settings: Homo sapiens, read-out: Growth Percent
# Experimental: as §1, §2
# [30] = system: SW-620; assay: NCI one-dose screen; settings: Homo sapiens; SW-620, 10 µM; read-out: Growth Percent
# Experimental: as §1, §2
# [31] = system: U251; assay: NCI one-dose screen; settings: Homo sapiens, U-251; U251, 10 µM; read-out: Growth Percent
# Experimental: as §1, §2
# [32] = system: UACC-257; assay: NCI one-dose screen; settings: Homo sapiens; UACC-257, 10 µM; read-out: Growth Percent
# Experimental: as §1, §2
# [33] = system: 59 human cancer cell lines; assay: NCI one-dose screen, whole panel; settings: Homo sapiens, mean over the panel, read-out: Mean Growth Percent
# Experimental: as §1, §2
# [34] = system: Caco-2; assay: MTT assay; settings: Homo sapiens; Caco-2, MTT assay, 24 h incubation
# Experimental: (§3) The proliferation of colorectal cancer cells (HCT116, HT29 and Caco-2) was assessed using MTT assay as previously reported. Cells were treated with increasing concentrations of 1, 5, 10, 20, 40, 80 or 100 µM of CP hybrids 4a-j, doxorubicin, or DMSO. See Supplementary Appendix A.
# [35] = system: HCT116; assay: MTT assay; settings: Homo sapiens, HCT-116, 24 h incubation
# Experimental: as §3
# [36] = system: HT-29; assay: MTT assay; settings: Homo sapiens; HT-29, MTT assay, 24 h incubation
# Experimental: as §3
SMILES,activity at 10 µM [1],activity at 10 µM [2],activity at 10 µM [3],activity at 10 µM [4],activity at 10 µM [5],activity at 10 µM [6],activity at 10 µM [7],activity at 10 µM [8],activity at 10 µM [9],activity at 10 µM [10],activity at 10 µM [11],activity at 10 µM [12],activity at 10 µM [13],activity at 10 µM [14],activity at 10 µM [15],activity at 10 µM [16],activity at 10 µM [17],activity at 10 µM [18],activity at 10 µM [19],activity at 10 µM [20],further results
"O=C(/C=C/c1ccc(Br)cc1)c1ccc(-n2cc(CN3CCN(c4cc5c(cc4F)c(=O)c(C(=O)O)cn5C4CC4)CC3)nn2)cc1 [Compound 4d, (E)-7-(4-((1-(4-(3-(4-bromophenyl)acryloyl)phenyl)-1H-1,2,3-triazol-4-yl)methyl)piperazin-1-yl)-1-cyclopropyl-6-fluoro-4-oxo-1,4-dihydroquinoline-3-carboxylic acid]",34.9%,90.5%,93.4%,34.6%,92.3%,80.8%,83.3%,90.6%,99.2%,87.1%,55.7%,88.1%,61.4%,81.9%,72.5%,80.4%,74.8%,77.6%,85.9%,88%,activity at 10 µM [21]: 84.9%; activity at 10 µM [22]: 80.7%; activity at 10 µM [23]: 77.2%; activity at 10 µM [24]: 81.9%; activity at 10 µM [25]: 82.5%; activity at 10 µM [26]: 92%; activity at 10 µM [27]: 58.8%; activity at 10 µM [28]: 85.7%; activity at 10 µM [29]: 21.3%; activity at 10 µM [30]: 85.9%; activity at 10 µM [31]: 68.4%; activity at 10 µM [32]: 90.1%; activity at 10 µM [33]: 77.4%; IC50 [34]: 7.19 ± 1.69 µM; IC50 [35]: 8.67 ± 2.15 µM; IC50 [36]: 62.5 ± 7.1 µM
"COc1ccc(/C=C/C(=O)c2ccc(-n3cc(CN4CCN(c5cc6c(cc5F)c(=O)c(C(=O)O)cn6C5CC5)CC4)nn3)cc2)cc1 [Compound 4g, (E)-1-Cyclopropyl-6-fluoro-7-(4-((1-(4-(3-(4-methoxyphenyl)acryloyl)phenyl)-1H-1,2,3-triazol-4-yl)methyl)piperazin-1-yl)-4-oxo-1,4-dihydroquinoline-3-carboxylic acid]",60.5%,89%,89.9%,74.6%,90.8%,96.6%,90.7%,95.8%,78.2%,86.4%,56.9%,88.7%,51.2%,82.2%,74.4%,81.7%,76.3%,85.4%,82.2%,79.1%,activity at 10 µM [21]: 90.5%; activity at 10 µM [22]: 83.6%; activity at 10 µM [23]: 77.3%; activity at 10 µM [24]: 90.7%; activity at 10 µM [25]: 92.8%; activity at 10 µM [26]: 85.3%; activity at 10 µM [27]: 58.2%; activity at 10 µM [28]: 91.6%; activity at 10 µM [29]: 13.1%; activity at 10 µM [30]: 81.7%; activity at 10 µM [31]: 68.6%; activity at 10 µM [32]: 91.7%; activity at 10 µM [33]: 78.8%; IC50 [34]: 11.4 ± 3.19 µM; IC50 [35]: 6.11 ± 1.03 µM; IC50 [36]: 34 ± 3.69 µM
"O=C(/C=C/c1ccc(Cl)cc1)c1ccc(-n2cc(CN3CCN(c4cc5c(cc4F)c(=O)c(C(=O)O)cn5C4CC4)CC3)nn2)cc1 [Compound 4c, (E)-7-(4-((1-(4-(3-(4-chlorophenyl)acryloyl)phenyl)-1H-1,2,3-triazol-4-yl)methyl)piperazin-1-yl)-1-cyclopropyl-6-fluoro-4-oxo-1,4-dihydroquinoline-3-carboxylic acid]",52.2%,88.9%,93.5%,64.9%,76.3%,94%,88.3%,91.6%,79.2%,73.7%,36.2%,84.4%,58.2%,79.5%,66%,84.1%,73%,79.7%,76.1%,80.1%,activity at 10 µM [21]: 91.5%; activity at 10 µM [22]: 62%; activity at 10 µM [23]: 70.4%; activity at 10 µM [24]: 91.7%; activity at 10 µM [25]: 69%; activity at 10 µM [26]: 88.2%; activity at 10 µM [27]: 45.8%; activity at 10 µM [28]: 72.3%; activity at 10 µM [29]: 24.1%; activity at 10 µM [30]: 83.7%; activity at 10 µM [31]: 42.1%; activity at 10 µM [32]: 91%; activity at 10 µM [33]: 73.9%; IC50 [34]: 11.7 ± 2.95 µM; IC50 [35]: 6.45 ± 1.84 µM; IC50 [36]: 15.3 ± 1.54 µM
